The values below come from US12617807B2, “Long lasting opioid reversal using hydrogen peroxide-induced release in blood” (University of Cincinnati, priority 2021, dated 2026).

Data set [1] is described as follows: naloxone in serum of injected mice by LCMS. In kind it is in vivo. How it is done:
After 30 minutes the mice were sacrificed. Blood was harvested and allowed to coagulate. Serum was harvested. A small amount of naloxone-D5 was spiked in, 9 vol of MeOH were added, and cooled for 30 min. After centrifugation the supernatant from each sample was dried and submitted to LCMS. […] FIG. 7 is a graph showing the results of the experiment.
Another experiment was conducted following the methodology of Example 1, except the mice were sacrificed at 2 hours instead of 30 minutes. FIG. 8 is a graph showing the results of the experiment.

For the next data set, the system named is renarcotization. The data set can be described thus: simulated renarcotization, supplemental opioid dose after rescue. Particulars: for survival (rescue rate) after initial opioid overdose: initial overdose 400 mg/kg.
The nature of data set [2]: max solubility in 1×PBS, 20% PEG400. In kind it is physicochemical. Particulars: 1×PBS with 20% PEG400, aqueous with cosolvent or surfactant or cyclodextrin.
For data set [3], the system named is opioid-induced respiratory failure and death. The experiment in a line: rescue of mice from lethal dose of morphine (survival). In kind it is in vivo. On the procedure: Experiments were conducted to determine if NPD-2 can rescue a mouse from opioid-induced respiratory failure and death. Mice were administered a lethal dose of morphine by injection intraperitoneally (IP, 400 mg/kg). […] A survival percentage was calculated and graphed.

For data set [4], the system named is 4-NHE (marker of ROS damage). The experiment in a line: ROS changes in blood of mice, ELISA for 4-NHE. Particulars: for effect on ROS levels: injected together with morphine. The source says: This was accomplished using an ELISA assay for 4-NHE that is a marker of ROS damage. See FIG. 9A for an illustration of the process. After a short period, serum was collected and quantification of 4-NHE against spiked blood standards was accomplished using an appropriate antibody.

For data set [5] the following is noted: in vivo; cited from earlier work.
The mark [6] stands for this setting: 2 mg/kg IP 15 min after morphine 400 mg/kg IP.
The mark [7] stands for this setting: 4 mg/kg IP 15 min after morphine 400 mg/kg IP.
Where [8] appears, read: 7 mg/kg IP 15 min after morphine 400 mg/kg IP.
[9] abbreviates: 15 mg/kg IP 15 min after morphine 400 mg/kg IP.
Where [10] appears, read: 6 mg/kg IP 15 min after morphine 400 mg/kg IP.

Values after ≈ are worked out from the molar mass of the structure shown.

Description for renarcotization: Experiments were conducted to examine the effect of the prodrug of the present invention in a simulated renarcotization situation.

Take `C=CCN1CCC23c4c5ccc(OCc6ccc(B(O)O)cc6)c4O[C@@H]2C(=O)CC[C@@]3(O)C1C5` (some centres unmarked) [PS-NPD-2]: the half-life result in data set [1] (inferred from 2 hour naloxone level in mice) is recorded as “potentially longer half-life”. The “naloxone concentration in blood/serum” value in data set [1] (mice, 30 minutes after injection, LCMS) is given as “higher concentrations of naloxone”. Also, in data set [1] (mice, 2 hours after injection, LCMS), the “naloxone in blood compared to naloxone” value is reported as “more naloxone in mice blood compared to naloxone”. For the same compound, the “survival (rescue rate) after initial opioid overdose” value with renarcotization (15 mg/kg) is recorded as 80%. Further, in the data set on renarcotization (prodrug 15 mg/kg vs naloxone 6 mg/kg, supplemental opioid dose 25 mg/kg, N=8 each group), the “number of surviving animals after supplemental opioid” value is listed as “higher number of surviving animals than naloxone”. In data set [2], this compound registered a solubility of about 50 mg/mL (≈ 108 mM). The “# dead” value amounted to 8 in data set [3] (setting [6]), 1 in data set [3] (setting [7]), 4 in data set [3] (setting [8]) and 1 in data set [3] (setting [9]). Further, the Survival percent in data set [3] (setting [6]) was 0%; in data set [3] (setting [7]), 0%; in data set [3] (setting [8]), 0%; in data set [3] (setting [9]), 87.5%. Also, the Survival rate is 0 in data set [3] (setting [6]), 0 in data set [3] (setting [7]), 0 in data set [3] (setting [8]) and 0.875 in data set [3] (setting [9]). For the same compound, the “effect on ROS levels” value in data set [4] is “reduces the ROS levels back to saline treated levels”.
For `CN1CC[C@]23c4c5ccc(O)c4O[C@H]2[C@@H](O)C=C[C@H]3[C@H]1C5` [morphine, reference compound], in data set [3] (morphine 400 mg/kg IP alone), the “# dead” value is reported as 2, the Survival percent is recorded as 0% and the Survival rate is given as 0. In data set [4] (mouse serum, compound alone), the “increase of ROS (4-NHE)” value is on record as “more than 10 fold”.
On to `C=CCN1CC[C@]23c4c5ccc(O)c4O[C@H]2C(=O)CC[C@@]3(O)[C@H]1C5` [naloxone, reference compound], for which the “survival (rescue rate) after initial opioid overdose” value in the data set on renarcotization (6 mg/kg) was 80%. Further, the metabolic stability result in data set [5] is given as “metabolically instable”. Further, in data set [3] (setting [10]), the “# dead” value worked out at 1, the Survival percent worked out at 75% and the Survival rate was found to be 0.75. Also, the “effect on ROS levels” value in data set [4] was “reduces the ROS levels back to saline treated levels”.
